pEC50, pIC50: −log10 of the molar value. Read-outs that look alike come from different tables or passages of the source.
Key:
Experiment in all cases: 72-hour CellTiter-Glo 2.0 growth inhibition screen (single agent, 9x9 combination dose matrix);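 as to Best CI Level: inhibition effect level at which the best CI was calculated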
Format in all cases: cell-based
HPAF-II = system: HPAF-II;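 as to Best CI Level: inhibition effect level at which the best CI was calculated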
KYSE-410 = conditions: for pEC50: KYSE-410, 72 h
LS-513 = conditions: for pEC50: LS-513, 72 h
SW48 KRAS (G12D/+) = conditions: for pEC50: SW48, 72 h, read-out: EC50
TOV-21G = system: TOV-21G;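 as to Best CI Level: inhibition effect level at which the best CI was calculated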
[1] = HPAF-II (KRAS G12D), enhancer + MEI-522 (Voruciclib), 72 h;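 as to Best CI Level: inhibition effect level at which the best CI was calculated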
[2] = enhancer combined with MEI-522 (Voruciclib), HPAF-II (Pancreas), 72 hours, inhibition data
[3] = Homo sapiens, KYSE-410, Esophageal, Additional Single Agent Responses (inhibition, % I), 72 h
[4] = Homo sapiens, KYSE-410, Esophageal, growth inhibition (GI) curve, single agent, 72 h
[5] = KYSE-410 (KRAS G12C), enhancer + MEI-522 (Voruciclib), 72 h;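 as to Best CI Level: inhibition effect level at which the best CI was calculated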
[6] = enhancer combined with MEI-522 (Voruciclib), KYSE-410 (Esophageal), 72 hours, inhibition data
[7] = Homo sapiens, LS-513, Colorectal, Additional Single Agent Responses (inhibition, % I), 72 h
[8] = Homo sapiens, LS-513, Colorectal, growth inhibition (GI) curve, single agent, 72 h
[9] = LS-513 (KRAS G12D), enhancer + MEI-522 (Voruciclib), 72 h;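 as to Best CI Level: inhibition effect level at which the best CI was calculated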
[10] = enhancer combined with MEI-522 (Voruciclib), LS-513 (Colorectal), 72 hours, inhibition data
[11] = Homo sapiens, SW48 KRAS (G12D/+), Colorectal, Additional Single Agent Responses (inhibition, % I), 72 h
[12] = Homo sapiens, SW48 KRAS (G12D/+), Colorectal, growth inhibition (GI) curve, single agent, 72 h
[13] = SW48 KRAS (G12D/+), enhancer + MEI-522 (Voruciclib), 72 h
[14] = enhancer combined with MEI-522 (Voruciclib), SW48 KRAS (G12D/+) (Colorectal), 72 hours, inhibition data
[15] = TOV-21G (KRAS G13C), enhancer + MEI-522 (Voruciclib), 72 h;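 as to Best CI Level: inhibition effect level at which the best CI was calculated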
[16] = enhancer combined with MEI-522 (Voruciclib), TOV-21G (Ovary), 72 hours, inhibition data

SMILES: CN1CCN(c2ccc(OC(F)(F)F)c(Nc3ncc4c(n3)-c3c(c(C(N)=O)nn3CCO)CC4)c2)CC1 [Onvansertib]
- Best CI (HPAF-II; [1]): 0.70
- Bliss Volume (HPAF-II; [1]): −0.18
- HSA volume (HPAF-II; [1]): 0.48
- Loewe Volume (HPAF-II; [1]): −0.22
- Synergy Score (HPAF-II; [1]): 1.29
- Response Area (HPAF-II; HPAF-II, Pancreas, Additional Single Agent Responses (inhibition, % I), 72 h): 2.97
- Response Area (HPAF-II; HPAF-II, Pancreas, growth inhibition (GI), AUC, single agent, 72 h): 3.98
- pEC50 (HPAF-II; Homo sapiens, HPAF-II, 72 h, Pancreas, Additional Single Agent Responses (inhibition, % I)): 7.68
- pEC50 (HPAF-II; Homo sapiens, HPAF-II, 72 h, Pancreas, growth inhibition (GI) curve, single agent): 7.68
- pIC50 (HPAF-II; Homo sapiens, HPAF-II, Pancreas, Additional Single Agent Responses (inhibition, % I), 72 h): 7.44
- Emax (HPAF-II; Homo sapiens, HPAF-II, Pancreas, Additional Single Agent Responses, 72 h, read-out: Max Response (% I)): 65%
- GI50 (HPAF-II; Homo sapiens, HPAF-II, Pancreas, growth inhibition (GI) curve, single agent, 72 h): 24.2 nM
- Emax (HPAF-II; Homo sapiens, HPAF-II, Pancreas, growth inhibition (GI), single agent, 72 h, read-out: Max Response (% GI)): 87%
- Best CI (HPAF-II; [2]): 0.85
- Bliss Volume (HPAF-II; [2]): −1.20
- HSA volume (HPAF-II; [2]): 0.37
- Loewe Volume (HPAF-II; [2]): −0.12
- Synergy Score (HPAF-II; [2]): 0.74
- Best CI Level (HPAF-II; enhancer combined with MEI-522 (Voruciclib), HPAF-II (Pancreas), 72 hours, inhibition data, unit assumed): 20%
- pEC50 (KYSE-410; [3]): 7.46
- pEC50 (KYSE-410; [4]): 7.46
- pIC50 (KYSE-410; [3]): 7.26
- Emax (KYSE-410; Homo sapiens, KYSE-410, Esophageal, Additional Single Agent Responses, 72 h, read-out: Max Response (% I)): 65%
- GI50 (KYSE-410; [4]): 43.1 nM
- Emax (KYSE-410; Homo sapiens, KYSE-410, Esophageal, growth inhibition (GI), single agent, 72 h, read-out: Max Response (% GI)): 78%
- Best CI (KYSE-410; [5]): 0.60
- Bliss Volume (KYSE-410; [5]): −1.39
- HSA volume (KYSE-410; [5]): −2.18
- Loewe Volume (KYSE-410; [5]): −2.01
- Synergy Score (KYSE-410; [5]): 0.29
- Response Area (KYSE-410; KYSE-410, Esophageal, Additional Single Agent Responses (inhibition, % I), 72 h): 2.89
- Response Area (KYSE-410; KYSE-410, Esophageal, growth inhibition (GI), AUC, single agent, 72 h): 3.49
- Best CI (KYSE-410; [6]): 0.68
- Bliss Volume (KYSE-410; [6]): −1.63
- HSA volume (KYSE-410; [6]): −1.72
- Loewe Volume (KYSE-410; [6]): −1.53
- Synergy Score (KYSE-410; [6]): 0.20
- Best CI Level (KYSE-410; enhancer combined with MEI-522 (Voruciclib), KYSE-410 (Esophageal), 72 hours, inhibition data, unit assumed): 20%
- pEC50 (LS-513; [7]): 7.31
- pEC50 (LS-513; [8]): 7.31
- pIC50 (LS-513; [7]): 7.21
- Emax (LS-513; Homo sapiens, LS-513, Colorectal, Additional Single Agent Responses, 72 h, read-out: Max Response (% I)): 79%
- GI50 (LS-513; [8]): 51.7 nM
- Emax (LS-513; Homo sapiens, LS-513, Colorectal, growth inhibition (GI), single agent, 72 h, read-out: Max Response (% GI)): 97%
- Best CI (LS-513; [9]): 0.96
- Bliss Volume (LS-513; [9]): 0.53
- HSA volume (LS-513; [9]): −0.64
- Loewe Volume (LS-513; [9]): −1.49
- Synergy Score (LS-513; [9]): 2.51
- Response Area (LS-513; LS-513, Colorectal, Additional Single Agent Responses (inhibition, % I), 72 h): 3.29
- Response Area (LS-513; LS-513, Colorectal, growth inhibition (GI), AUC, single agent, 72 h): 4.03
- Best CI (LS-513; [10]): 0.90
- Best CI Level (LS-513; [10]): 20
- Bliss Volume (LS-513; [10]): −2.22
- HSA volume (LS-513; [10]): −0.87
- Loewe Volume (LS-513; [10]): −1.32
- Synergy Score (LS-513; [10]): 0.70
- pEC50 (SW48 KRAS (G12D/+); [11]): 7.85
- pEC50 (SW48 KRAS (G12D/+); [12]): 7.80
- pIC50 (SW48 KRAS (G12D/+); [11]): 7.75
- Emax (SW48 KRAS (G12D/+); Homo sapiens, SW48 KRAS (G12D/+), Colorectal, Additional Single Agent Responses, 72 h, read-out: Max Response (% I)): 92%
- GI50 (SW48 KRAS (G12D/+); [12]): 13.9 nM
- Emax (SW48 KRAS (G12D/+); Homo sapiens, SW48 KRAS (G12D/+), Colorectal, growth inhibition (GI), single agent, 72 h, read-out: Max Response (% GI)): 168%
- Response Area (SW48 KRAS (G12D/+); SW48 KRAS (G12D/+), Colorectal, Additional Single Agent Responses (inhibition, % I), 72 h): 3.73
- Response Area (SW48 KRAS (G12D/+); SW48 KRAS (G12D/+), Colorectal, growth inhibition (GI), AUC, single agent, 72 h): 5.57
- Best CI (SW48 KRAS (G12D/+); [13]): 0.39
- Bliss Volume (SW48 KRAS (G12D/+); [13]): 5.34
- HSA volume (SW48 KRAS (G12D/+); [13]): −1.32
- Loewe Volume (SW48 KRAS (G12D/+); [13]): 1.06
- Synergy Score (SW48 KRAS (G12D/+); [13]): 8.15
- Best CI (SW48 KRAS (G12D/+); [14]): 0.51
- Bliss Volume (SW48 KRAS (G12D/+); [14]): −0.39
- HSA volume (SW48 KRAS (G12D/+); [14]): −0.28
- Loewe Volume (SW48 KRAS (G12D/+); [14]): 0.65
- Synergy Score (SW48 KRAS (G12D/+); [14]): 2.12
- Best CI Level (SW48 KRAS (G12D/+); enhancer combined with MEI-522 (Voruciclib), SW48 KRAS (G12D/+) (Colorectal), 72 hours, inhibition data, unit assumed): 20%
- pEC50 (TOV-21G; Homo sapiens, TOV21G, 72 h, TOV-21G, Ovary, Additional Single Agent Responses (inhibition, % I)): 7.55
- pEC50 (TOV-21G; Homo sapiens, TOV21G, 72 h, TOV-21G, Ovary, growth inhibition (GI) curve, single agent): 7.47
- pIC50 (TOV-21G; Homo sapiens, TOV21G, TOV-21G, Ovary, Additional Single Agent Responses (inhibition, % I), 72 h): 7.50
- Emax (TOV-21G; Homo sapiens, TOV21G, TOV-21G, Ovary, Additional Single Agent Responses, 72 h, read-out: Max Response (% I)): 86%
- GI50 (TOV-21G; Homo sapiens, TOV21G, TOV-21G, Ovary, growth inhibition (GI) curve, single agent, 72 h): 26.5 nM
- Emax (TOV-21G; Homo sapiens, TOV21G, TOV-21G, Ovary, growth inhibition (GI), single agent, 72 h, read-out: Max Response (% GI)): 143%
- Best CI (TOV-21G; [15]): 0.40
- Bliss Volume (TOV-21G; [15]): 5.55
- HSA volume (TOV-21G; [15]): −0.24
- Loewe Volume (TOV-21G; [15]): −0.71
- Synergy Score (TOV-21G; [15]): 1.56
- Response Area (TOV-21G; TOV-21G, Ovary, Additional Single Agent Responses (inhibition, % I), 72 h): 3.84
- Response Area (TOV-21G; TOV-21G, Ovary, growth inhibition (GI), AUC, single agent, 72 h): 6.09
- Best CI (TOV-21G; [16]): 0.56
- Best CI Level (TOV-21G; [16]): 30
- Bliss Volume (TOV-21G; [16]): 0.52
- HSA volume (TOV-21G; [16]): 0.33
- Loewe Volume (TOV-21G; [16]): 0.43
- Synergy Score (TOV-21G; [16]): 0.98

Source: patent US20240016781A1, “TREATMENT OF KRAS MUTANT CANCERS” (MEI Pharma, Inc., priority 2020, published 2024)
